Like-named read-outs stand apart in the source and are kept apart here.
Tests used:
PPARg LBD DH12 = assay: Supplementary Figure 11: fluorescence anisotropy dissociation constants, DH12 (peptide not given); format: binding
[1] = molecular target: PPARγ LBD, deletion of helix 12 / NCoR peptide; assay: Fluorescence anisotropy, NCoR peptide to helix 12 deleted (DH12) PPARγ LBD; format: binding; settings: read-out: NCoR dissociation constant average, DH12; Supp. Fig. 11
Procedure: (§1) These samples were then plated as usual.

PPARg LBD N340A = assay: Supplementary Figure 11: fluorescence anisotropy dissociation constants, N340A (peptide not given)
[2] = molecular target: T1, K329A PPARγ LBD / NCoR peptide (Homo sapiens, UniProt P37231, K329A); assay: Fluorescence anisotropy, NCoR peptide to K329A PPARγ LBD; format: binding; settings: read-out: NCoR dissociation constant average, K329A; Supp. Fig. 11
T1 construct: 6× His tag with TEV recognition site (N, cleaved yes); made in house; host or cells: E. coli BL21 (DE3) gold
Procedure: as §1

[3] = molecular target: T2, K347A PPARγ LBD / NCoR peptide (Homo sapiens, UniProt P37231, K347A); assay: Fluorescence anisotropy, NCoR peptide to K347A PPARγ LBD; format: binding; settings: read-out: NCoR dissociation constant average, K347A; Supp. Fig. 11
T2 construct: 6× His tag with TEV recognition site (N, cleaved yes); made in house; host or cells: E. coli BL21 (DE3) gold
Procedure: as §1

[4] = molecular target: T3, K329A PPARγ LBD / SMRT peptide (Homo sapiens, UniProt P37231, K329A); assay: Fluorescence anisotropy, SMRT peptide to K329A PPARγ LBD; format: binding
T3 construct: 6× His tag with TEV recognition site (N, cleaved yes); made in house; host or cells: E. coli BL21 (DE3) gold
T3 sequence (P37231 230-505 K329A): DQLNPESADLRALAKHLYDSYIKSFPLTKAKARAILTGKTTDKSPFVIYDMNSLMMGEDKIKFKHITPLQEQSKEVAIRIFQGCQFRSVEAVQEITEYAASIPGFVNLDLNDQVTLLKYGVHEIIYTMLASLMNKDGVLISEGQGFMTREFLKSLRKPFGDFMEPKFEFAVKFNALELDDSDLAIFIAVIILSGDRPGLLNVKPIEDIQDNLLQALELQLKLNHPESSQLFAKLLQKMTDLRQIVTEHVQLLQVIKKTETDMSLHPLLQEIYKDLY
Procedure: as §1

[5] = molecular target: T4, PPARγC313A,Q322C-BTFA LBD / MED1 peptide (Homo sapiens, UniProt P37231, C313A/Q322C); assay: Fluorescence anisotropy, MED1 peptide to PPARγC313A,Q322C-BTFA LBD; format: binding; settings: Supp. Table 2
T4 construct: 6× His tag with TEV recognition site (N, cleaved yes); made in house; host or cells: E. coli BL21 (DE3) gold
Procedure: as §1

SMILES: O=C(Nc1ccccc1)c1cc([N+](=O)[O-])ccc1Cl [GW9662]
- Kd (PPARg LBD DH12; data set 6-23-17, read-out: dissociation constant): 0.0662 µM
- Kd (PPARg LBD DH12; data set 6-26-17 FP, read-out: dissociation constant): 0.155 µM
- Kd (PPARg LBD DH12; data set FP 3 15 18 Inverse agonism part 2, read-out: dissociation constant): 0.0271 µM
- Kd (PPARg LBD DH12; data set PPARg LBD DH12 9-26-17, read-out: dissociation constant): 0.145 µM
- Kd (PPARg LBD DH12; data set PPARg LBD DH12 10-24-17, read-out: dissociation constant): 0.0731 µM
- Kd [1]: 0.093 µM
- Kd (PPARg LBD N340A; read-out: dissociation constant, Average N340A values, average of the listed data sets): 0.485 µM
- Kd (PPARg LBD N340A; read-out: dissociation constant, data set FP 3 15 18 Inverse agonism part 2): 0.342 µM
- Kd (PPARg LBD N340A; read-out: dissociation constant, data set PPARg LBD N340A 12 11 17): 0.628 µM
- Kd [2]: 1.82 µM
- Kd [3]: 0.59 µM
- SMRT Kd, wt vs K329A mean difference ± SE ([4]; Supp. Fig. 12): -1916±631
- Kd ([4]; Supp. Fig. 12, read-out: SMRT dissociation constant average, K329A): 2.55 µM
- Kd ([4]; run SMRT FP 4 5 18, read-out: SMRT dissociation constant, K329A): 1.33 µM
- Kd ([4]; run SMRT FP 4 6 18, read-out: SMRT dissociation constant, K329A): 1.85 µM
- Kd ([4]; run SMRT FP 4 10 18, T0070907 value 5903 excluded by the authors, read-out: SMRT dissociation constant, K329A): 4.47 µM
- MED1 fold change (labeled/wt), PPARγC313A,Q322C-BTFA [5]: 2.3
- Kd ([5]; read-out: MED1 Kd, PPARγC313A,Q322C-BTFA, covalent ligands T0070907, GW9662 expected to be apo-like): 9.75 µM

Source: publication PMC6925260 (Nature Communications, 2019)
